The values that follow come from US20100184678A1, “USE OF A PEPTIDE AS A THERAPEUTIC AGENT” (priority 2007, published 2010).

One assay has as its system HIV-1IIIB. In words: HIV-1 antiviral assay in CEM-SS cells (MTS readout). The settings on record: HIV-1IIIB in CEM-SS cells.
The next assay has as its system HCMV strain AD169. Kind of assay: HCMV plaque formation assay in MRC-5 cells. Type of assay: cell-based. The conditions noted are these: for inhibition of HCMV plaque formation as compared to the virus control experiment: 10 micrograms per ml, MRC-5 cells, 7-10 days. The text has this: Ganciclovir was used as positive control.
For another assay, the system named is murine spleen cells. In words: Th1/Th2 cytokine profiling assay (Ovalbumin-restimulated spleen cells). Type of assay: cell-based, Balb/c mice. The conditions noted are these: 10 micrograms per ml, 72 hours; for production of IFN-gamma (decreased by %) / production of IL-4 (decreased by %) / production of IL-5 (decreased by %): number = decrease; for production of TNF-alpha (induced by %): number = increase.

Assay [1] has as its system A549 cells. In words: Apoptosis prevention assay (C2 ceramide, Annexin-5). The class given is cell-based, human. The conditions noted are these: 10 micrograms per ml, 30 min pretreatment, then C2 ceramide.
Protocol: Human A549 cells (carcinomic human alveolar basal epithelial cells) were utilized in the experiments employing the Annexin-5 apoptosis assay. […] A549 cells were pretreated for 30 min with test peptides—10 micrograms per ml—followed by the exposure to C2 ceramide.
Assay [2] concerns hepatitis B virus (HBV) ayw strain. Kind of assay: HBV assay in HepG2-2.2.15 cells (secreted HBV DNA, TaqMan PCR). Type of assay: cell-based. The settings on record: 10 micrograms per ml, HepG2-2.2.15, six days. (In general: Real-time PCR tracks product formation cycle by cycle.)
Assay [3] concerns Primary Human endothelial cells (HUVEC). Kind of assay: Endothelial cell migration assay. Type of assay: cell-based. The settings on record: 10 micrograms per ml; 22 hours. The protocol: Thereafter, designated concentration of testing peptides—10 micrograms per ml—was added in duplicate wells.
A further assay concerns HUVEC. In words: Endothelial tube formation assay. The class given is cell-based, human. The settings on record: 10 micrograms per ml; 20 hours. An excerpt:
Positive control was vehicle only. […] Raw data were expressed as average tubule lenghs in pixels±standard deviation.

For assay [4], the system named is A549 cells. In words: Apoptosis induction assay (Annexin-5). Type of assay: cell-based, human. The settings on record: 10 micrograms per ml; 24 hours.
Protocol: Human A549 cells (carcinomic human alveolar basal epithelial cells) were utilized in the experiments employing the Annexin-5 apoptosis assay. […] Test peptides—10 micrograms per ml—were exposed for 24 hours to the A549 cells before they were analyzed for signs of apoptosis.

Where no end group is shown, it is not given here.

Consider `Cc1cn([C@H]2C[C@H](N=[N+]=[N-])[C@@H](CO)O2)c(=O)[nH]c1=O` [AZT], for which, in the assay on HIV-1IIIB, the “antiviral activity of positive control compounds” value is “expected levels of antiviral activity”.

As for `Nc1nc(O)c2ncn(COC(CO)CO)c2n1` [Ganciclovir, reference compound], the “antiviral activity of positive control compound” value in the assay with HCMV strain AD169 (HCMV in MRC-5 cells) was “expected levels of antiviral activity”.

Turning to `CC(C)(C)NC(=O)[C@@H]1CN(Cc2cccnc2)CCN1C[C@@H](O)C[C@@H](Cc1ccccc1)C(=O)N[C@H]1c2ccccc2C[C@H]1O` [indinavir], in the assay with HIV-1IIIB, the “antiviral activity of positive control compounds” value was “expected levels of antiviral activity”.

With “His-Pro-Leu-Gln-Lys-Thr-Tyr-OH (HPLQKTY-OH) [Peptide 1]”, in the assay on murine spleen cells, the “production of IL-2 (change)” value is recorded as “did not significantly change”, the “production of IFN-gamma (decreased by %)” value is reported as “did not significantly change”, the “production of IL-4 (decreased by %)” value is on record as 30.9% and the “production of IL-5 (decreased by %)” value is “did not significantly change”. Further, the “production of TNF-alpha (induced by %)” value in the assay with murine spleen cells is 31.3%. Further, the “inhibition of HCMV plaque formation as compared to the virus control experiment” value with HCMV strain AD169 amounted to 0.3%. For the same compound, the “induction of apoptosis on ceramide-induced apoptosis” value with A549 cells [1] (increase of apoptosis) was 9.7%. Besides, the “inhibition of HBV replication as compared to the virus control infection” value in assay [2] was 25.3%. For the same compound, the “inhibition of the migration of human endothelial cells” value in assay [3] is 4%. The “inhibition of the tube formation of human endothelial cells” value in the assay on HUVEC worked out at 6%. The “induction of apoptosis on human lung cells” value with A549 cells [4] was “did not show any significant induction”.

“His-Ser-Asp-Gly-Ile-Phe-Thr-Asp-Ser-Tyr-Ser-Arg-Tyr-Arg-Lys-Gln-Met-Ala-Val-Lys-Lys-Tyr-Leu-Ala-Ala-Val-Leu-NH2 (HSDGIFTDSYSRYRKQMAVKKYLAAVL-NH2) [Peptide 2]”: in the assay with murine spleen cells, the “production of IL-2 (change)” value is listed as “did not significantly change”, the “production of IFN-gamma (decreased by %)” value amounted to 62.9%, the “production of IL-4 (decreased by %)” value is reported as “did not significantly change” and the “production of IL-5 (decreased by %)” value was 43.3%. The “production of TNF-alpha (induced by %)” value with murine spleen cells is on record as “did not significantly change”. The “inhibition of HCMV plaque formation as compared to the virus control experiment” value with HCMV strain AD169 is “did not inhibit”. The “prevention of apoptosis on ceramide-induced apoptosis” value in the assay on A549 cells [1] (protection) worked out at 13.7%. Further, in assay [2], the “inhibition of HBV replication as compared to the virus control infection” value worked out at 39.1%. In assay [3], the “inhibition of the migration of human endothelial cells” value was “did not inhibit”. Also, the “inhibition of the tube formation of human endothelial cells” value with HUVEC was “did not inhibit”. For the same compound, the “induction of apoptosis on human lung cells” value in the assay with A549 cells [4] is given as 3.6%.
